Data: ChEMBL document CHEMBL6127070, “Design, synthesis, and molecular dynamic simulations of some novel benzo[d]thiazoles with anti-virulence activity against Pseudomonas aeruginosa” (Eur J Med Chem, 2024)
pIC50: −log10 of the molar value. Activity calls are given as the source filed them. The rule behind the calls is not given here.

Experiments:
[1] = tested on: Candida albicans; experiment: Antimicrobial activity against Candida albicans ATCC 60193 assessed as growth inhibition zone by agar diffusion method; assay type: functional
[2] = tested on: Pseudomonas aeruginosa; experiment: Antivirulence activity in Pseudomonas aeruginosa assessed as inhibition of rhamnolipids production at sub-MIC by spectrophotometric method relative to control; assay type: functional
[3] = tested on: Klebsiella pneumoniae; experiment: Antimicrobial activity against Klebsiella pneumoniae ATCC 700603 assessed as growth inhibition zone by agar diffusion method; assay type: functional
[4] = tested on: Pseudomonas aeruginosa; experiment: Inhibition of biofilm formation in Pseudomonas aeruginosa assessed as absorbance by measuring OD at 570 nm at sub-MIC by crystal violet staining based analysis (reference value: 0.635 +/- 0.014); assay type: functional
[5] = tested on: Escherichia coli; experiment: Antimicrobial activity against Escherichia coli ATCC 25922 assessed as growth inhibition zone by agar diffusion method; assay type: functional
[6] = tested on: Bacillus subtilis; experiment: Antimicrobial activity against Bacillus subtilis ATCC 6633 assessed as growth inhibition zone by agar diffusion method; assay type: functional
[7] = tested on: Staphylococcus aureus; experiment: Antimicrobial activity against Staphylococcus aureus ATCC 43300 assessed as growth inhibition zone by agar diffusion method; assay type: functional
[8] = tested on: Pseudomonas aeruginosa; experiment: Antibacterial activity against Pseudomonas aeruginosa by CLSI protocol based broth microdilution method; assay type: functional; details: for MIC: Pseudomonas aeruginosa
[9] = tested on: Pseudomonas aeruginosa; experiment: Inhibition of biofilm formation in Pseudomonas aeruginosa at sub-MIC by crystal violet staining based analysis relative to control; assay type: functional
[10] = tested on: Pseudomonas aeruginosa; experiment: Antimicrobial activity against Pseudomonas aeruginosa ATCC 27853 assessed as growth inhibition zone by agar diffusion method; assay type: functional
[11] = tested on: Pseudomonas aeruginosa; experiment: Antivirulence activity in Pseudomonas aeruginosa assessed as inhibition of pyocyanin production by measuring OD at […] at sub-MIC by chloroform-HCl extraction method relative to control; assay type: functional
[12] = tested on: Pseudomonas aeruginosa; experiment: Antibacterial activity against Pseudomonas aeruginosa assessed as effect on bacterial growth at 9.375 microg/ml incubated for 24 hrs by growth curve analysis; assay type: functional, organism-based; details: dose 9.375 µg/ml
[13] = tested on: Pseudomonas aeruginosa; experiment: Antivirulence activity in Pseudomonas aeruginosa assessed as inhibition of pyocyanin production at sub-MIC by chloroform-HCl extraction method relative to control; assay type: functional
[14] = tested on: Pseudomonas aeruginosa; experiment: Antibacterial activity against Pseudomonas aeruginosa assessed as effect on bacterial growth at 18.75 microg/ml incubated for 24 hrs by growth curve analysis; assay type: functional, organism-based; details: dose 18.75 µg/ml
[15] = target: T1, Transcriptional activator protein LasR (Pseudomonas aeruginosa (strain ATCC 15692 / PAO1 / 1C / PRS 101 / LMG12228), UniProt P25084); experiment: Inhibition of Pseudomonas aeruginosa LasR in Escherichia coli DH5 transfected with lacZ reporter and JN105 production plasmid incubated for 4 hrs by beta-galactosidase reporter based miller test
T1 sequence (P25084 whole entry): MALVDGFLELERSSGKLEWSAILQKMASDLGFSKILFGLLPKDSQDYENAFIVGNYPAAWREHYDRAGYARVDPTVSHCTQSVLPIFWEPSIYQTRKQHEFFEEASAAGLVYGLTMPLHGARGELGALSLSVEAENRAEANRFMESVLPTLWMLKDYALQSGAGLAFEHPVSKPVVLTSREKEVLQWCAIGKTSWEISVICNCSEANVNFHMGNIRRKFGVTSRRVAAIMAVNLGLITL

[16] = tested on: Pseudomonas aeruginosa; experiment: Antibacterial activity against Pseudomonas aeruginosa assessed as effect on bacterial growth at 37.5 microg/ml incubated for 24 hrs by growth curve analysis; assay type: functional, organism-based; details: dose 37.5 µg/ml
[17] = tested on: Pseudomonas aeruginosa; experiment: Antibacterial activity against Pseudomonas aeruginosa assessed as bacterial mortality relative to control; assay type: functional

| SMILES | inhibition zone (IZ) [1] [mm] | inhibition (INH) [2] [%] | inhibition zone (IZ) [3] [mm] | OD [4] | inhibition zone (IZ) [5] [mm] | inhibition zone (IZ) [6] [mm] | inhibition zone (IZ) [7] [mm] | SubMIC [8] [µg/mL] | MIC [8] | inhibition (INH) [9] [%] | inhibition zone (IZ) [10] [mm] | OD [11] | Activity [12] | inhibition (INH) [13] [%] | Activity [14] | pIC50 [15] | Activity [16] | inhibition [2] | inhibition [9] | mortality [17] [%] |
| --- | --- | --- | --- | --- | --- | --- | --- | --- | --- | --- | --- | --- | --- | --- | --- | --- | --- | --- | --- | --- |
| OC(Cn1cncn1)(Cn1cncn1)c1ccc(F)cc1F [FLUCONAZOLE] | 30 |  |  |  |  |  |  |  |  |  |  |  |  |  |  |  |  |  |  |  |
| COc1ccc(-c2ccnc3c(-c4nc5ccccc5s4)cnn23)cc1 | 23 | 28.6 | 19 | 0.342 | 22 | 19 | 17 | 9.375 | 18.8 µg/mL | 46.1 | 22 | 0.268 | inactive | 39.8 |  |  |  |  |  |  |
| c1ccc(-c2ccnc3c(-c4nc5ccccc5s4)cnn23)cc1 | 21 | 13.3 | 21 | 0.472 | 19 | 17 | 20 | 18.75 | 37.5 µg/mL | 25.7 | 20 | 0.346 |  | 22.2 | inactive |  |  |  |  |  |
| CN1CCN(c2ccc(/C=C(\C#N)c3nc4ccccc4s3)cc2)CC1 | 30 | 58.5 | 27 | 0.146 | 26 | 25 | 28 | 9.375 | 18.8 µg/mL | 77 | 26 | 0.113 | inactive | 74.6 |  | 5.86 |  |  |  |  |
| CC1CCN(c2ccc(/C=C(\C#N)c3nc4ccccc4s3)cc2)CC1 | 24 | 30.9 | 27 | 0.317 | 22 | 20 | 22 | 9.375 | 18.8 µg/mL | 50.1 | 22 | 0.264 | inactive | 40.7 |  |  |  |  |  |  |
| N#C/C(=C\c1ccc(N2CCCCC2)cc1)c1nc2ccccc2s1 | 25 | 34.9 | 24 | 0.303 | 25 | 21 | 24 | 9.375 | 18.8 µg/mL | 52.3 | 23 | 0.251 | inactive | 43.6 |  |  |  |  |  |  |
| C[C@@H](O)[C@H]1C(=O)N2C(C(=O)O)=C(SCCNC=N)C[C@H]12 [IMIPENEM ANHYDROUS] |  |  | 18 |  | 22 | 20 | 24 |  | 93.9 µM |  | 12 |  |  |  |  |  |  |  |  |  |
| N#C/C(=C\c1ccc(N2CCOCC2)cc1)c1nc2ccccc2s1 | 24 | 24.3 | 20 | 0.383 | 24 | 19 | 23 | 18.75 | 37.5 µg/mL | 39.7 | 21 | 0.289 |  | 35.1 | inactive |  |  |  |  |  |
| Nc1[nH]ncc1-c1nc2ccccc2s1 | 17 |  | 18 | 0.612 | 16 | 15 | 15 | 37.5 | 75 µg/mL |  | 16 | 0.425 |  | 4.5 |  |  | inactive | inactive | inactive |  |
| Clc1ccc(-c2ccnc3c(-c4nc5ccccc5s4)cnn23)cc1 | 26 | 42.5 | 25 | 0.287 | 20 | 21 | 25 | 9.375 | 18.8 µg/mL | 54.8 | 23 | 0.205 | inactive | 53.9 |  |  |  |  |  |  |
| Brc1ccc(-c2ccnc3c(-c4nc5ccccc5s4)cnn23)cc1 | 20 | 9.5 | 17 | 0.508 | 18 | 16 | 19 | 18.75 | 37.5 µg/mL | 20 | 19 | 0.376 |  | 15.5 | inactive |  |  |  |  |  |
| CC[C@H]1OC(=O)[C@H](C)[C@@H](O[C@H]2C[C@@](C)(OC)[C@@H](O)[C@H](C)O2)[C@H](C)[C@@H](O[C@@H]2O[C@H](C)C[C@H](N(C)C)[C@H]2O)[C@](C)(OC)C[C@@H](C)C(=O)[C@H](C)[C@@H](O)[C@]1(C)O [CLARITHROMYCIN] |  |  |  |  |  |  |  |  |  |  |  |  |  |  |  |  |  |  |  | 29.11 |
| Cc1cc(C)n2ncc(-c3nc4ccccc4s3)c2n1 | 20 |  | 19 | 0.631 | 17 | 15 | 18 | 37.5 | 75 µg/mL |  | 17 | 0.407 |  | 8.5 |  |  | inactive | inactive | inactive |  |
| Cc1ccc(-c2ccnc3c(-c4nc5ccccc5s4)cnn23)cc1 | 28 | 45.3 | 26 | 0.26 | 22 | 20 | 26 | 9.375 | 18.8 µg/mL | 59.1 | 24 | 0.18 | inactive | 59.6 |  |  |  |  |  |  |
| O=C(O)c1cn(C2CC2)c2cc(N3CCNCC3)c(F)cc2c1=O [CIPROFLOXACIN] |  |  |  |  |  |  |  |  |  |  |  |  |  |  |  |  |  |  |  | 16.99 |
| N#C/C(=C\c1ccc(N2CCCC2)cc1)c1nc2ccccc2s1 | 28 | 51 | 26 | 0.229 | 24 | 22 | 27 | 9.375 | 18.8 µg/mL | 63.9 | 25 | 0.156 | inactive | 64.9 |  | 5.81 |  |  |  |  |
| Fc1ccc(-c2ccnc3c(-c4nc5ccccc5s4)cnn23)cc1 | 30 | 54.3 | 26 | 0.194 | 21 | 25 | 24 | 9.375 | 18.8 µg/mL | 69.4 | 25 | 0.136 | inactive | 69.4 |  | 5.96 |  |  |  |  |
| Cc1nc2c(-c3nc4ccccc4s3)cnn2c(C)c1Cl | 22 | 21.2 | 22 | 0.406 | 21 | 21 | 19 | 18.75 | 37.5 µg/mL | 36.1 | 21 | 0.305 |  | 31.5 | inactive |  |  |  |  |  |
